Biological target: T1, human CRF1 receptor (Homo sapiens, UniProt P34998)
T1 construct: expressed in transfected cells; host or cells: CHO cells (membrane fraction)
T1 sequence (P34998 24-415): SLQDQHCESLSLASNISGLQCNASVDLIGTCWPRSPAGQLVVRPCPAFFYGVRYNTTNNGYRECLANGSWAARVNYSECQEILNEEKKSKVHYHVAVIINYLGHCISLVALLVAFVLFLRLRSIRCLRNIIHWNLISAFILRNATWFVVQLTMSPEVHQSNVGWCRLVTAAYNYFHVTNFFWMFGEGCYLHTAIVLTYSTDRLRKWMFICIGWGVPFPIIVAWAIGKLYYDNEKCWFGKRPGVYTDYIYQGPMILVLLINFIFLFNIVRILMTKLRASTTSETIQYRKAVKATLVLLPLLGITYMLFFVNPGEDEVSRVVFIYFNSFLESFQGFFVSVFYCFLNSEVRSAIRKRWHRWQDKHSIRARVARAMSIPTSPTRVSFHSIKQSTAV
Assay: Measurement of CRF binding inhibitory rate (125I-CRF receptor binding, CHO cellular membrane fraction)
Settings: 1.5 h, at the presence of 1 μM of a test compound; human CRF1 receptor expressing CHO cellular membrane fraction, 50 pM 125I-CRF; read-out: Binding inhibitory rates (% inhibition)
Experimental: A receptor binding experiment was carried out using a human CRF1 receptor expressing CHO cellular membrane fraction and ovine CRF, [^125I]-tyr^0(^125I-CRF). 1000 nM of a test compound was incubated with 1 μg of human CRF receptor expressing CHO cellular membrane fraction and 50 pM of ^125I-CRF in a binding assay buffer (50 mM Tris-HCl, 5 mM EDTA, 10 mM MgCl2, 0.05% CHAPS, 0.1% BSA, 0.5 mM PMSF, 0.1 μg/mL pepstatin, 20 μg/mL leupeptin, pH 7.5). In addition, for measuring nonspecific binding (NSB), 0.1 μM unlabelled human Urocortin was incubated with 5 μg of human CRF receptor expressing CHO cellular membrane fraction and 50 pM of ^125I-CRF in a binding assay buffer. After a binding reaction was carried out at room temperature for 1.5 hr, the membrane was entrapped on a glass filter (UniFilter plate GF-C/Perkin Elmer) by suction filtration using a cell harvester (Perkin Elmer), and washed with ice-cooled 50 mM Tris-HCl (pH 7.5). After drying the glass filter, a liquid scintillation cocktail (Microscinti 0, Perkin Elmer) was added, and the radioactivity of ^125I-CRF remaining on a glass filter was measured using Topcount (Perkin Elmer).
(TB-SB)/(TB-NSB)×100 (SB: radioactivity when a compound is added, TB: maximum binding radioactivity, NSB: nonspecific binding radioactivity) were calculated to obtain binding inhibitory rates under the range of the presence from 0.05 nM to 10 μM of each compound. The IC50 values were calculated by using GraphPad Prism software.

Row | SMILES | inhibition at 1 µM [%]
1 | CCC(OC(C)=O)c1ccc(Cl)c2nc3n(c12)CCCN3c1ccc(Cl)cc1Cl (racemic) [Example 238, 1-[9-Chloro-1-(2,4-dichlorophenyl)-1,2,3,4-tetrahydropyrimido[1,2-a]benzimidazol-6-yl]propyl acetate] | 98
2 | CCC(OC(C)=O)c1ccc(Cl)c2nc3n(c12)CCCN3c1ccc(OC)nc1C (racemic) [Example 265, 1-[9-Chloro-1-(6-methoxy-2-methylpyridin-3-yl)-1,2,3,4-tetrahydropyrimido[1,2-a]benzimidazol-6-yl]propyl acetate] | 89
3 | CCC(OC(C)=O)c1ccc(Cl)c2nc3n(c12)CCCN3c1ccc(Cl)cc1Cl (single isomer, unassigned; (-)) [Example 239, (−)-1-[9-Chloro-1-(2,4-dichlorophenyl)-1,2,3,4-tetrahydropyrimido[1,2-a]benzimidazol-6-yl]propyl acetate] | 90
4 | CCC(OC(C)=O)c1ccc(Cl)c2nc3n(c12)CCCN3c1ccc(OC)nc1C (single isomer, unassigned; (-)) [Example 266, (−)-1-[9-Chloro-1-(6-methoxy-2-methylpyridin-3-yl)-1,2,3,4-tetrahydropyrimido[1,2-a]benzimidazol-6-yl]propyl acetate] | 82
5 | CCC(CC)c1ccc(Cl)c2nc3n(c12)CCCCN3c1cnc(N(C)C)cc1C [Example 25, 5-[10-Chloro-7-(1-ethylpropyl)-2,3,4,5-tetrahydro-1H-[1,3]diazepino[1,2-a]benzimidazol-1-yl]-N,N,4-trimethylpyridin-2-amine] | 91
6 | CCC(O)c1ccc(Cl)c2nc3n(c12)CCCN3c1ccc(Cl)cc1Cl (stereo not drawn) [Example 112, 1-[9-Chloro-1-(2,4-dichlorophenyl)-1,2,3,4-tetrahydropyrimido[1,2-a]benzimidazol-6-yl]propan-1-ol] | 95
7 | COc1ccc(N2CCCn3c2nc2c(Cl)ccc(C(O)(C4CC4)C4CC4)c23)c(C)n1 [Example 276, [9-Chloro-1-(6-methoxy-2-methylpyridin-3-yl)-1,2,3,4-tetrahydropyrimido[1,2-a]benzimidazol-6-yl](dicyclopropyl)methanol] | 94
8 | CCN(CC)c1ccc(F)c2nc3n(c12)CCCN3c1ccc(Cl)cc1Cl [Example 365, 1-(2,4-Dichlorophenyl)-N,N-diethyl-9-fluoro-1,2,3,4-tetrahydropyrimido[1,2-a]benzimidazol-6-amine] | 95
9 | COc1ccc(C(O)(C2CC2)C2CC2)c2c1nc1n2CCCN1c1ccc(Cl)cc1Cl [Example 369, Dicyclopropyl[1-(2,4-dichlorophenyl)-9-methoxy-1,2,3,4-tetrahydropyrimido[1,2-a]benzimidazol-6-yl]methanol] | 96
10 | Cc1cc(Cl)cc(Cl)c1N1CCn2c1nc1c(Cl)ccc(C(O)(C3CC3)C3CC3)c12 [Example 426, [8-Chloro-1-(2,4-dichloro-6-methylphenyl)-2,3-dihydro-1H-imidazo[1,2-a]benzimidazol-5-yl](dicyclopropyl)methanol] | 98
11 | CCC(CCO)c1ccc(Cl)c2nc3n(c12)CCCN3c1ccc(Cl)cc1Cl (stereo not drawn) [Example 450, 3-[9-Chloro-1-(2,4-dichlorophenyl)-1,2,3,4-tetrahydropyrimido[1,2-a]benzimidazol-6-yl]pentan-1-ol] | 98

Same assay, conditions: at the presence of 1 μM of a test compound; human CRF1 receptor expressing CHO cellular membrane fraction, 50 pM 125I-CRF

Row | SMILES | Binding inhibitory rates (% inhibition) [%]
12 | CCC(OC(C)=O)c1ccc(Cl)c2nc3n(c12)CCCN3c1ccc(Cl)cc1Cl (single isomer, unassigned; (+)) [Example 240, (+)-1-[9-Chloro-1-(2,4-dichlorophenyl)-1,2,3,4-tetrahydropyrimido[1,2-a]benzimidazol-6-yl]propyl acetate] | 97
13 | CCC(OC(C)=O)c1ccc(Cl)c2nc3n(c12)CCCN3c1ccc(OC)nc1C (single isomer, unassigned; (+)) [Example 267, (+)-1-[9-Chloro-1-(6-methoxy-2-methylpyridin-3-yl)-1,2,3,4-tetrahydropyrimido[1,2-a]benzimidazol-6-yl]propyl acetate] | 96
14 | CCC(O)c1ccc(Cl)c2nc3n(c12)CCCN3c1ccc(Cl)cc1Cl (single isomer, unassigned; (+)) [Example 439, (+)-1-[9-Chloro-1-(2,4-dichlorophenyl)-1,2,3,4-tetrahydropyrimido[1,2-a]benzimidazol-6-yl]propan-1-ol] | 84

Same assay, conditions: human CRF1 receptor expressing CHO cellular membrane fraction, 50 pM 125I-CRF, 0.05 nM to 10 μM of compound; read-out: IC50 values (CRF binding inhibition)

Row | SMILES | IC50 [µM]
15 | COc1ccc(N2CCCn3c2nc2c(Cl)ccc(C(OCC(F)(F)F)C4CC4)c23)c(Cl)c1 (stereo not drawn) [Example 468, 9-Chloro-1-(2-chloro-4-methoxyphenyl)-6-[cyclopropyl(2,2,2-trifluoroethoxy)methyl]-1,2,3,4-tetrahydropyrimido[1,2-a]benzimidazole] | < 1
